{"source": "patent US8012486B2", "about": "“Composition for treating atopic dermatitis comprising hirsutenone as an active ingredient” (Chung-Ang University Industry Academic Cooperation …, priority 2009, dated 2011)", "format_in_all_cases": "in vivo, mouse", "key": {"IL-5": {"system": "IL-5", "experiment": "Measurement of IL-5 expression level by ELISA", "settings": "NC/Nga mice, injection or skin application for 4 weeks, serum and splenocyte, vs negative control", "protocol": "(§1) Serum was prepared from blood of main artery. Lymphocytes extracted from spleen were cultured. Briefly, extracted spleen was homogenized, filtered through mesh and single cells was isolated. Red blood cells were lysed in RBC lysis buffer and the supernatant was removed by centrifugation. 1×10^6 cells were cultured in 24-well plate containing RPMI media (1 ml). The experiments were performed in media containing cells cultured for 3 days.\n(§2) NC/Nga mice in which atopic dermatitis had been induced were treated with hirsutenone through an injection or skin application for 4 weeks. Blood and spleen were collected from mice and interleukin (IL)-4, IL-5, IL-10 and IL-13 expression level in serum and splenocyte were measured using ELISA. IL-4, IL-5 and IL-13 expression detected in groups of hirsutenone being injected or skin applied was much lower than those of negative control (FIG. 9a, FIG. 9b and FIG. 9c)."}, "COX-2 [1]": {"system": "COX-2", "experiment": "Measurement of COX-2 expression using real-time PCR", "settings": "NC/Nga mice, injection or skin application for 4 weeks, epidermal cells", "protocol": "(§3) The primers used in Real-time PCR are as follows.\n(§4) Total RNA was extracted according to the following steps. Tissue was treated with 1 ml TRIZol reagent and mixed with 200 μl chloroform. After centrifugation at 12,000 rpm for 15 min at 4° C., the supernatant was transferred into a new tube and mixed with ½ vol. of isopropanol. The mixture was again centrifuged at 12,000 rpm for 15 min at 4° C. The supernatant was discarded and total RNA was dissolved in DEPC-water.\n(§5) cDNA was prepared according to the following steps. The isolated total RNA was dissolved in 30 μl DEPC-DW and reverse transcription using 3 μg of total RNA as a template was performed in a reaction mixture (20 μl) containing 1 μl of reverse transcriptase, 2 μl of 10× buffer, 2 μl of 10 mM dNTP (dNTP mix), 1 μl of oligo dT primer, 0.5 μl of RNase inhibitor and 4 μl of 25 mM MgCl2.\n(§6) Each 2 μl of cDNA prepared was amplified using PCR. PCR reaction was performed by 45 cycles of 1 min at 59° C. and 1 min at 94° C. Finally, the mixtures were incubated at 72° C. for 1 min for extension.\n(§7) NC/Nga mice in which atopic dermatitis had been induced were treated with hirsutenone through an injection or skin application for 4 weeks and then mice epidermal cells were collected. To investigate whether hirsutenone has a regulatory activity on immune responses, the expression levels of COX-2 and iNOS were detected using real-time PCR. […]"}, "eosinophil": {"system": "eosinophil", "experiment": "Eosinophil count in blood", "settings": "NC/Nga mice, injection or skin application for 4 weeks, after vs before administration", "protocol": "Mouse blood was collected into capillary tube and 30 μl of mouse whole blood was diluted 6-fold by addition of 150 μl saline. Eosinophils were counted using a Sysmex XE-2100 hematology analyzer. Slide glass smeared with peripheral blood was prepared and stained with Wright-Giemsa. Eosinophil count was carried out by differentially counting 200 leukocytes.\nNC/Nga mice in which atopic dermatitis had been induced were treated with hirsutenone through an injection or skin application for 4 weeks. Blood was collected from mice before and after administration or application of hirsutenone, and then eosinophil count was measured."}, "iNOS [2]": {"system": "iNOS", "experiment": "Measurement of iNOS expression using real-time PCR", "settings": "NC/Nga mice, injection or skin application for 4 weeks, epidermal cells", "protocol": "as §3, §4, §5, §6, §7"}, "COX-2 [3]": {"system": "COX-2", "experiment": "Measurement of COX-2 expression level using western blotting", "settings": "NC/Nga mice, injection or skin application for 4 weeks, epidermal cells", "protocol": "(§8) Skin tissue containing epidermal cells was lysed and centrifuged using a centrifuge. The supernatant was electrophoresized on 15% SDS-PAGE (sodium dodecyl sulfate polyacrylamide gel electrophoresis). For analysis of COX-2 and iNOS, proteins separated on gel electrophoresis were transferred into a nitrocellulose membrane and sequentially incubated with a primary antibody (1:1000 in BSA, rabbit polyclonal anti-COX-2 antibody, rabbit polyclonal iNOS antibody; Chemicon, Calif., USA) and a secondary antibody (1:2000 in BSA, anti-goat IgG, anti-rabbit IgG; Chemicon, Calif., USA).\n(§9) NC/Nga mice in which atopic dermatitis had been induced were treated with hirsutenone through an injection or skin application for 4 weeks and mice epidermal cells were collected. To investigate whether hirsutenone has a regulatory activity on immune responses, the expression levels of COX-2 and iNOS were detected using western blotting."}, "iNOS [4]": {"system": "iNOS", "experiment": "Measurement of iNOS expression level using western blotting", "settings": "NC/Nga mice, injection or skin application for 4 weeks, epidermal cells", "protocol": "as §8, §9"}, "IL-13": {"system": "IL-13", "experiment": "Measurement of IL-13 expression level by ELISA", "settings": "NC/Nga mice, injection or skin application for 4 weeks, serum and splenocyte, vs negative control", "protocol": "as §1, §2"}, "IL-4": {"system": "IL-4", "experiment": "Measurement of IL-4 expression level by ELISA", "settings": "NC/Nga mice, injection or skin application for 4 weeks, serum and splenocyte, vs negative control", "protocol": "as §1, §2"}, "IgE": {"system": "IgE", "experiment": "Measurement of IgE level by ELISA", "settings": "NC/Nga mice, injection or skin application for 4 weeks, vs negative control", "protocol": "as §1\nNC/Nga mice in which atopic dermatitis had been induced were treated with hirsutenone through an injection or skin application for 4 weeks. Blood was collected from mice and IgE expression level was measured using ELISA."}, "[5]": {"system": "mice in which atopic dermatitis had been induced", "experiment": "Naked-eye observation of atopic dermatitis in animal model", "from_the_text": "To examine treatment efficacy of hirsutenone on atopic dermatitis, the present inventors utilized an experimental animal model in which atopic dermatitis was induced by attachment of mite patch to the skin. Briefly, the patch containing a mite-derived ingredient as a human atopic dermatitis-inducing agent was applied to 5-old-week mice. The hairs of their back were partially removed and mite patch was attached. At 2-week post-application, skin damage equivalent to atopic dermatitis was observed. Mite patch was detached at 18 weeks.\nIn addition to NC/Nga mouse, BABL/c mouse was used as an animal model.\nTo examine treatment efficacy of hirsutenone on atopic dermatitis, mice in which atopic dermatitis had been induced were treated with hirsutenone through an injection or skin application for 4 weeks. Then, external skin morphology was estimated by naked-eye observation so as to determine whether a symptom of atopic dermatitis was relieved. Each group injected or applied with hirsutenone was compared to a negative control group into which hirsutenone was not administered, resulting in the improvement of a symptom of atopic dermatitis. […] FIG. 5d represents a positive control treated with dexamethasone. […] FIG. 5g represents the result of administration of plancol as positive control.\nFIG. 6d represents a positive control treated with dexamethasone. […] FIG. 6g represents the result of administration of plancol as positive control."}}}
{"smiles": "O=C(/C=C/CCc1ccc(O)c(O)c1)CCc1ccc(O)c(O)c1", "note": "[hirsutenone]", "values": [{"measurement": "IL-5 expression level", "setting": "IL-5", "result": "much lower"}, {"measurement": "COX-2 expression level (real-time PCR)", "setting": "COX-2 [1]", "result": "significantly decreased"}, {"measurement": "number of eosinophil in blood", "setting": "eosinophil", "result": "more severely reduced"}, {"measurement": "iNOS expression level (real-time PCR)", "setting": "iNOS [2]", "result": "significantly decreased"}, {"measurement": "COX-2 expression level (western blotting)", "setting": "COX-2 [3]", "result": "reduced"}, {"measurement": "iNOS expression level (western blotting)", "setting": "iNOS [4]", "result": "reduced"}, {"measurement": "IL-13 expression level", "setting": "IL-13", "result": "much lower"}, {"measurement": "IL-4 expression level", "setting": "IL-4", "result": "much lower"}, {"measurement": "IgE expression level in blood", "setting": "IgE", "result": "remarkably lower"}, {"measurement": "symptom of atopic dermatitis (naked-eye observation)", "setting": "[5]; BABL/c mice, 0.1% hirsutenone by injection, vs PBS negative control", "result": "much more relieved"}, {"measurement": "symptom of atopic dermatitis (naked-eye observation)", "setting": "[5]; BABL/c mice, 1% hirsutenone by injection, vs PBS negative control", "result": "much more relieved"}, {"measurement": "symptom of atopic dermatitis (naked-eye observation)", "setting": "[5]; BABL/c mice, 1% hirsutenone ointment applied to skin, vs composition without active ingredient", "result": "much more alleviated"}, {"measurement": "symptom of atopic dermatitis (naked-eye observation)", "setting": "[5]; NC/Nga mice, 0.1% hirsutenone by injection, 4 weeks, vs PBS negative control", "result": "much more improved"}, {"measurement": "symptom of atopic dermatitis (naked-eye observation)", "setting": "[5]; NC/Nga mice, 1% hirsutenone by injection, 4 weeks, vs PBS negative control", "result": "much more improved"}, {"measurement": "symptom of atopic dermatitis (naked-eye observation)", "setting": "[5]; NC/Nga mice, 1% hirsutenone ointment applied to skin, 4 weeks, vs composition without active ingredient", "result": "much more remarkably improved"}]}
